TGI data for eight compounds are collected here from PubChem BioAssay (NCI).

Among the test systems are SK-MEL-2 melanoma; UACC-257 melanoma; DLD-1 colon; NCI-H522 lung; A498 renal; A549 NSCLC; OVCAR-4 ovarian; NCI-H460 lung; HCT-15 colon; CCRF-CEM leukemia; OVCAR-3 ovarian; IGROV1 ovarian; SK-MEL-28 melanoma; HOP-92 NSCLC; NCI-H226 lung; PC-3 prostate; DU-145 prostate; MCF7 breast; T-47D breast; MDA-MB-231 breast.
Holding throughout (test): DTP human tumour cell line panel, 48 h

What is called TGI is the concentration at which net growth stops.

SMILES strings stand for the structures.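 Where inhibition never reached the appropriate level, the endpoint shown equals the highest concentration tested. Otherwise, values were interpolated linearly from a five-concentration, 48-hour dose response in 96-well plates. Definition used: TGI = concentration required for complete inhibition of growth.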

With `Cc1c2n(c(=O)[nH]c1=O)C1OC(CO)C(O2)C1N=[N+]=[N-]` (stereo not given), the TGI in the experiment on SK-MEL-2 melanoma, in the experiment with UACC-257 melanoma, in the experiment with DLD-1 colon, in the experiment with NCI-H522 lung, in the experiment with A498 renal and in the experiment with A549 NSCLC was over 100 µM in each case. Besides, the TGI in the experiment on OVCAR-4 ovarian, in the experiment with NCI-H460 lung, in the experiment on HCT-15 colon, with CCRF-CEM leukemia, in the experiment with OVCAR-3 ovarian and with IGROV1 ovarian was over 100 µM throughout. Besides, the concentration for total growth inhibition (TGI) with SK-MEL-28 melanoma, in the experiment on HOP-92 NSCLC and in the experiment with NCI-H226 lung was over 100 µM each time.

Take `C[n+]1c2ccccc2c(NCC(=O)O)c2ccccc21`: the total growth inhibition concentration (TGI) in the experiment on SK-MEL-2 melanoma, in the experiment on UACC-257 melanoma, with DLD-1 colon, in the experiment on NCI-H522 lung, in the experiment on A498 renal and with A549 NSCLC was over 100 µM throughout. Besides, the TGI with OVCAR-4 ovarian, in the experiment with NCI-H460 lung, in the experiment with HCT-15 colon, with OVCAR-3 ovarian, with IGROV1 ovarian and with NCI-H226 lung was over 100 µM throughout.

In the case of `C=C1C[C@@H]2CC[C@@]34CC5O[C@H]6C(O[C@H]7CC[C@H](CC(=O)O[C@@H]8[C@@H](C)[C@@H]9O[C@@H]%10C[C@]%11(C[C@@H]%12O[C@]%13(C[C@H](C)[C@@H]%14O[C@@H]%15CC(C(O)CO)O[C@@H]%15C[C@@H]%14O%13)C[C@H](C)[C@@H]%12O%11)O[C@@H]%10C[C@@H]9O[C@H]8CC8O[C@@H](CC[C@@H]1O2)C[C@@H](C)C8(O)CO)O[C@@H]7[C@@H]6O3)[C@H]5O4` (stereo not given in full), the total growth inhibition concentration (TGI) was over 1 µM in the experiment with SK-MEL-2 melanoma; over 1 µM in the experiment on UACC-257 melanoma; 0.614 µM in the experiment with NCI-H522 lung; over 1 µM in the experiment with A498 renal; over 1 µM with PC-3 prostate; over 1 µM in the experiment on A549 NSCLC. Besides, the concentration for total growth inhibition (TGI) in the experiment with OVCAR-4 ovarian, with DU-145 prostate, with NCI-H460 lung, with HCT-15 colon, with CCRF-CEM leukemia and in the experiment with OVCAR-3 ovarian was over 1 µM in each case. For the same compound, the TGI in the experiment with IGROV1 ovarian, in the experiment on MCF7 breast, in the experiment with SK-MEL-28 melanoma, with HOP-92 NSCLC, in the experiment with NCI-H226 lung and with T-47D breast was over 1 µM each time. The compound also gave a TGI in the experiment with MDA-MB-231 breast of over 1 µM.

For the compound `S=C1NCCN1`, the total growth inhibition concentration (TGI) in the experiment with SK-MEL-2 melanoma, in the experiment with UACC-257 melanoma, in the experiment on DLD-1 colon, in the experiment on NCI-H522 lung, with A549 NSCLC and in the experiment on OVCAR-4 ovarian was over 100 µM each time. Besides, the TGI in the experiment with HCT-15 colon, with CCRF-CEM leukemia, with OVCAR-3 ovarian, in the experiment with IGROV1 ovarian, in the experiment with SK-MEL-28 melanoma and in the experiment with HOP-92 NSCLC was over 100 µM throughout. In the experiment on NCI-H226 lung, this compound returned a TGI of over 100 µM.

Turning to `COc1cccc2c1C(=O)C1=C(C2=O)C(O)CC(C)(C)O1` (stereo not given), the TGI was over 100 µM in the experiment on SK-MEL-2 melanoma; 50 µM in the experiment on UACC-257 melanoma; 62.8 µM in the experiment on NCI-H522 lung; over 100 µM in the experiment with A498 renal; 68.4 µM with PC-3 prostate; over 100 µM with A549 NSCLC. Besides, the concentration for total growth inhibition (TGI) was 55.8 µM in the experiment with OVCAR-4 ovarian; over 100 µM in the experiment with DU-145 prostate; over 100 µM with NCI-H460 lung; over 100 µM in the experiment with HCT-15 colon; 66.9 µM in the experiment with CCRF-CEM leukemia; 40.5 µM in the experiment on OVCAR-3 ovarian. Further, the TGI in the experiment with IGROV1 ovarian, in the experiment with MCF7 breast, in the experiment with SK-MEL-28 melanoma, in the experiment on HOP-92 NSCLC, with NCI-H226 lung and in the experiment with T-47D breast was over 100 µM each time. Moreover, the concentration for total growth inhibition (TGI) in the experiment on MDA-MB-231 breast turned out to be 87.7 µM.

With `C1=CC2C=CC(C=C1)P2c1ccccc1` (stereo not given), the total growth inhibition concentration (TGI) in the experiment on SK-MEL-2 melanoma, in the experiment with UACC-257 melanoma, with NCI-H522 lung, in the experiment with A498 renal, with PC-3 prostate and in the experiment on A549 NSCLC was over 100 µM in each case. Besides, the TGI in the experiment with OVCAR-4 ovarian, in the experiment with DU-145 prostate, with NCI-H460 lung, in the experiment with HCT-15 colon, with CCRF-CEM leukemia and in the experiment on OVCAR-3 ovarian was over 100 µM in each case. Also, the TGI with IGROV1 ovarian, in the experiment with MCF7 breast, with SK-MEL-28 melanoma, in the experiment with HOP-92 NSCLC, in the experiment on NCI-H226 lung and in the experiment on T-47D breast was over 100 µM each time. The concentration for total growth inhibition (TGI) with MDA-MB-231 breast is over 100 µM.

As for `Cc1sc(Nc2ccc(Nc3nc(-c4ccccc4)c(C)s3)cc2)nc1-c1ccccc1`, the TGI with SK-MEL-2 melanoma is 76.4 µM; with UACC-257 melanoma it was over 100 µM; in the experiment on NCI-H522 lung it was over 100 µM; with A498 renal, over 100 µM; in the experiment with PC-3 prostate, 48.4 µM; with A549 NSCLC it was over 100 µM. The TGI in the experiment on OVCAR-4 ovarian, with DU-145 prostate, with NCI-H460 lung, in the experiment on HCT-15 colon, with CCRF-CEM leukemia and with OVCAR-3 ovarian was over 100 µM throughout. Besides, the TGI with IGROV1 ovarian is over 100 µM; with MCF7 breast it was 71.5 µM; with SK-MEL-28 melanoma, over 100 µM; in the experiment on HOP-92 NSCLC, over 100 µM; in the experiment with NCI-H226 lung, over 100 µM; with T-47D breast, over 100 µM. Further, in the experiment on MDA-MB-231 breast, the TGI is over 100 µM.

With `O=C1NC(N/N=C/C(O)C(O)C(O)C(O)CO)=N/C1=C\c1ccco1` (stereo not given), the TGI with SK-MEL-2 melanoma, with UACC-257 melanoma, with NCI-H522 lung, with A498 renal, with PC-3 prostate and with A549 NSCLC was over 100 µM in each case. Further, the total growth inhibition concentration (TGI) in the experiment with OVCAR-4 ovarian, in the experiment on DU-145 prostate, in the experiment with NCI-H460 lung, in the experiment on HCT-15 colon, in the experiment with CCRF-CEM leukemia and in the experiment with OVCAR-3 ovarian was over 100 µM throughout. Further, the concentration for total growth inhibition (TGI) in the experiment on IGROV1 ovarian, with MCF7 breast, in the experiment on SK-MEL-28 melanoma, with HOP-92 NSCLC, in the experiment with NCI-H226 lung and in the experiment on T-47D breast was over 100 µM each time. Besides, the TGI in the experiment on MDA-MB-231 breast is over 100 µM.
